# Measured values as given in patent EP4810483A1, “6- AND 5-HETEROARYL DERIVATIVES AND USE THEREOF” (CMS Research & Development Pte. Ltd., priority 2023, dated 2025).
# Like-named read-outs stand apart in the source and are kept apart here.
# Tests used:
# [1] = Pharmacokinetic evaluation in mice (IV and PO); format: in vivo; conditions: mouse, plasma, CD-1 mice; for half-life: IV, read-out: Half-life T1/2 (IV) (converted); for AUC(0-t): PO, read-out: Area under the concentration-time curve AUC0-last PO; for bioavailability: read-out: Bioavailability F; for clearance: read-out: Clearance CL; for Cmax: read-out: Peak plasma concentration Cmax; for Vd: read-out: Volume of distribution Vdss
# Description: Test Method 2: Pharmacokinetic Evaluation in Mice
# Assay method: Test compounds were mixed with 5% DMSO / 60% polyethylene glycol (PEG400) / 35% water, vortexed and sonicated to obtain a clear 0.2 mg/mL solution, which was then filtered through a microporous membrane before use. Male CD-1 mice weighing 25-35 g were selected. The candidate compound solution was administered intravenously at a dose of 1 mg/kg. The candidate compound solution was orally administered at a dose of 5 mg/kg after fasting. Blood samples (25 µL each) were collected at 0.083, 0.25, 0.5, 1, 2, 4, 8, 12 and 24 hours after administration, and placed into commercial anticoagulant tubes pre-containing EDTA-K2. The tubes were centrifuged for 10 minutes to separate plasma, which was then stored at -60°C. The content of the target compound in plasma samples was determined by LC/MS/MS method, and pharmacokinetic parameters were calculated using Phoenix WinNonlin software (Pharsight, USA).
# Tlast: time of the last detection point. AUC0-last: (Area Under the Concentration-Time Curve) refers to the area enclosed by the plasma drug concentration curve and the time axis. F (Bioavailability) is a measure of the rate and extent to which a drug is absorbed into the systemic circulation, serving as a critical indicator for evaluating the degree of drug absorption. […]
# [2] = system: maximal electroshock-induced epilepsy model; experiment: Maximal electroshock-induced epilepsy model, behavioral pharmacodynamics; format: in vivo; conditions: dose 5 mg/kg, oral, one hour before electrical stimulation; male CD-1 mice
# Excerpt: Assay Example 2: Evaluation of the behavioral pharmacodynamics of the test compounds in a maximal electroshock-induced epilepsy model
# This study used behavioral tests in male CD-1 mice to investigate the effects of test compounds on acute epileptic seizures behavior induced by maximal electroshock.
# Male CD-1 mice (25 to 35g) were used as the experimental animals and fed with standard feed (Beijing Vital River Laboratory Animal Technology Co., Ltd.).
# After arriving at the animal facility, the experimental animals needed to acclimatize for at least one week. The mice were observed daily for vital signs, and randomly divided into groups according to their body weights one day before the drug administration. One hour before the electrical stimulation, different dosages of the test compound were orally administered to each group. On the day of the assay, the male CD-1 mice in each group were anesthetized locally at the cornea with 2% lidocaine. Then, silver bipolar electrodes were used to electrically stimulate the cornea of the mice with 18 mA, 60 Hz, a pulse width of 0.6 ms, and a stimulation time of 1 s to induce seizures. Subsequently, the latency of seizures and the duration of limb rigidity in mice after the electrical stimulation were observed, and the protection rate from seizures for each group was statistically analyzed.
# [3] = biological target: T1, hKCNQ2/3 (Homo sapiens, UniProt O43525+O43526); experiment: cell-based
# T1 construct: expressed in transfected cells; host or cells: CHO
# T1 sequence (O43526 whole entry): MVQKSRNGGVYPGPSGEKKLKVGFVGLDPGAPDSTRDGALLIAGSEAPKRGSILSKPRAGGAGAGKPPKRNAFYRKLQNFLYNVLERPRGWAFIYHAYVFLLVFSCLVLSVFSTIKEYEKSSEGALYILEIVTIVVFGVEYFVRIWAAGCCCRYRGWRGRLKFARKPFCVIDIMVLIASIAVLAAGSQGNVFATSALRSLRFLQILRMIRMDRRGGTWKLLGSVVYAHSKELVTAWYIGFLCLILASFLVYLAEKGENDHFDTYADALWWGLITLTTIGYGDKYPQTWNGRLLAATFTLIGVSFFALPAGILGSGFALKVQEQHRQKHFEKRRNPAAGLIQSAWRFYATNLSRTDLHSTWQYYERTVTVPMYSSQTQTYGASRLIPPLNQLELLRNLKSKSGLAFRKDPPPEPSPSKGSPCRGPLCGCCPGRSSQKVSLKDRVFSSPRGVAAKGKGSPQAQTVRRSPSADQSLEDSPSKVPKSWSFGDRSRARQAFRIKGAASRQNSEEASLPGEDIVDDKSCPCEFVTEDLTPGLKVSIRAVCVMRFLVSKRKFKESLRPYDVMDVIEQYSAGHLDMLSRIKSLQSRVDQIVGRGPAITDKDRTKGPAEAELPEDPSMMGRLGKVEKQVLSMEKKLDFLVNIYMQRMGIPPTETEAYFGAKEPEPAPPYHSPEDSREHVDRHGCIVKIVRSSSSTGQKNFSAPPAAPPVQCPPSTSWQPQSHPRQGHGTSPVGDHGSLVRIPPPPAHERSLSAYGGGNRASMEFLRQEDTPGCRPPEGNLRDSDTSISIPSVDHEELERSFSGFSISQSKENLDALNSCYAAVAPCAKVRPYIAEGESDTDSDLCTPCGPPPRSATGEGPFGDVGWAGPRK
# T1 sequence (O43525 whole entry): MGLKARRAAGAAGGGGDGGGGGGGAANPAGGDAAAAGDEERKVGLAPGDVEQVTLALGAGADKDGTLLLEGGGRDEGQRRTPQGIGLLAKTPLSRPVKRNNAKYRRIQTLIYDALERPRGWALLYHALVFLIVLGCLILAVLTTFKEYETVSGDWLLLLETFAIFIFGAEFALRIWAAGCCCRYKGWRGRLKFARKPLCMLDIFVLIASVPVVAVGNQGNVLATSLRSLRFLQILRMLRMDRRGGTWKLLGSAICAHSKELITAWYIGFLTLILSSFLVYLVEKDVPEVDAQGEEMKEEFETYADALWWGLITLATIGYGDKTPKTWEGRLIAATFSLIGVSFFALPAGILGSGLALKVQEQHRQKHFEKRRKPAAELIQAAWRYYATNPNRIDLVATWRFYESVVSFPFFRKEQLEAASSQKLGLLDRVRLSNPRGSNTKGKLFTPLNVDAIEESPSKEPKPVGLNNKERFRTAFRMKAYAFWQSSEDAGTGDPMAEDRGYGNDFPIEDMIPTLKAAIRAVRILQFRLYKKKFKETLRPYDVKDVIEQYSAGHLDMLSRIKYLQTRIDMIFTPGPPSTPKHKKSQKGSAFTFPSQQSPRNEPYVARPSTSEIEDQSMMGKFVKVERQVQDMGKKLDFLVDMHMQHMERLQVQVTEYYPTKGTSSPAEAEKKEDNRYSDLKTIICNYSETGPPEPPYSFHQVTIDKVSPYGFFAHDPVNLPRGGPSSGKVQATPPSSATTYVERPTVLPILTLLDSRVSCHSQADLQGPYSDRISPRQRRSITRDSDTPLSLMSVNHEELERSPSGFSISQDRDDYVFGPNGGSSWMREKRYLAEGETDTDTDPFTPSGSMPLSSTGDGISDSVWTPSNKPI
# Excerpt: Test Method 1: hKCNQ2/3 Thallium Flux Assay
# Test Objective: To test the in vitro concentration-response relationship of compounds using FLIPR thallium flux assay in CHO cell lines stably expressing hKCNQ2/3.
# According to the split ratio, the cells were transferred to another T-75 flask containing complete cell growth medium. Note: To maintain logarithmic growth, the cells should be kept in a subconfluent monolayer state. Based on the cell doubling time, the cells were passaged every 2-3 days.
# • (1) Day 1 - Cell preparation: Cells were digested as described above, and cell density and viability were determined using a Cell Countess. The volume of the single-cell suspension was adjusted with complete cell growth medium. Then, hKCNQ2/3_CHO cells were seeded onto PDL-precoated 384-well plates at a density of approximately 20,000 cells/well (30 µL/well). The plates were then incubated overnight in a 37°C, 5% CO2 humidified air incubator. • (2) Day 2 - Compound preparation: Test compounds were diluted with dimethyl sulfoxide (DMSO) to stock concentrations and stored in a -20°C freezer. A compound addition program was set up on the ECHO liquid handler, and compounds were added to the plates using the ECHO liquid handler. Retigabine (RTG) was used as a positive control at a highest concentration of 100 µM with 3-fold serial dilutions for a total of 9 doses. Buffer containing 5 mM K^+ and 1 mM Tl^+ was added to the plates. Notes: 1) K2SO4 and Tl2SO4 were prepared in 1× chloride-free buffer. Depending on the voltage-gated potassium channel involved, the concentrations of Tl^+ and K^+ should be adjusted. Tl^+ concentration is approximately 0.5-5 mM, and K^+ concentration is approximately 5-30 mM. 2) Each 1 mM solution of K2SO4 and Tl2SO4 contains 2 mM K^+ and Tl^+; the final concentration should be calculated based on the ion concentration. 3) TlCl readily precipitates and a chloride-free buffer is required. • (3) Day 2 -Assay testing: Once the cells reached the desired confluence, the cell assay plates were removed from the incubator. Assay buffer and diluted Tl^+ dye (Molecular Devices # R8222) were prepared. The medium was discarded using a Bravo liquid handler, and 25 µL of Tl^+ dye was added to each well. After 1 hour of incubation, the cell assay plates, composite plates and FLIPR tips were placed in the FLIPR^TETRA (Molecular Devices, USA) for FLIPR detection. After setting up the tips, baseline readings were taken for 60 seconds, then 12.5 µL was added from the composite plate (3×) to the cell assay plate, and data were recorded for at least 5 minutes. • (4) Data processing: Maximum signals were generated by the FLIPR software. […] Data quality control: S/B > 2.00, Z factor > 0.50.
# • (1) Day 1 - Cell preparation: Cells were digested as described above, and cell density and viability were determined using a Cell Countess. The volume of the single-cell suspension was adjusted with complete cell growth medium. Then, hKCNQ2/3_CHO cells were seeded onto PDL-precoated 384-well plates at a density of approximately 20,000 cells/well (30 µL/well). The plates were then incubated overnight in a 37°C, 5% CO2 humidified air incubator. • (2) Day 2 - Compound preparation: Test compounds were diluted with dimethyl sulfoxide (DMSO) to stock concentrations and stored in a -20°C freezer. A compound addition program was set up on the ECHO liquid handler, and compounds were added to the plates using the ECHO liquid handler. Retigabine (RTG) was used as a positive control at a highest concentration of 100 µM with 3-fold serial dilutions for a total of 9 doses. Buffer containing 5 mM K^+ and 1 mM Tl^+ was added to the plates. Notes: 1) K2SO4 and Tl2SO4 were prepared in 1× chloride-free buffer. Depending on the voltage-gated potassium channel involved, the concentrations of Tl^+ and K^+ should be adjusted. Tl^+ concentration is approximately 0.5 mM -5 mM, and K^+ concentration is approximately 5 mM -30 mM.
smiles,measurement,setting,value
Cc1c(NC(=O)CC(C)(C)C)n(C)c2cc(Nc3ccc(F)cc3)ccc12 [Compound 1],half-life,"[1]; dose IV:0.5, PO:2 mg/kg",1.83 h
same,half-life,"[1]; dose IV:1, PO:5 mg/kg",1.63 h
same,AUC(0-t),"[1]; dose IV:0.5, PO:2 mg/kg",2.04 µM·h
same,AUC(0-t),"[1]; dose IV:1, PO:5 mg/kg",4.57 µM·h
same,bioavailability,"[1]; dose IV:0.5, PO:2 mg/kg",79.6%
same,clearance,"[1]; dose IV:0.5, PO:2 mg/kg",34.8 mL/min/kg
same,Cmax,"[1]; dose IV:0.5, PO:2 mg/kg",322 nM
same,Vd,"[1]; dose IV:0.5, PO:2 mg/kg",5.16 L/kg
same,bioavailability,"[1]; dose IV:1, PO:5 mg/kg",83.9%
same,clearance,"[1]; dose IV:1, PO:5 mg/kg",41.8 mL/min/kg
same,Cmax,"[1]; dose IV:1, PO:5 mg/kg",596 nM
same,Vd,"[1]; dose IV:1, PO:5 mg/kg",5.06 L/kg
same,Seizure incidence (%),[2],16.7%
same,EC50,[3],960 nM
Cc1nc(Nc2ccc3c(C)c(NC(=O)CC(C)(C)C)n(C)c3c2)ccc1F [Compound 41],half-life,"[1]; dose IV:1, PO:5 mg/kg",0.7 h
same,AUC(0-t),"[1]; dose IV:1, PO:5 mg/kg",21.4 µM·h
same,bioavailability,"[1]; dose IV:1, PO:5 mg/kg",78.2%
same,clearance,"[1]; dose IV:1, PO:5 mg/kg",8.9 mL/min/kg
same,Cmax,"[1]; dose IV:1, PO:5 mg/kg",4580 nM
same,Vd,"[1]; dose IV:1, PO:5 mg/kg",0.6 L/kg
same,Seizure incidence (%),[2],0%
same,EC50,[3],290 nM
Cc1c(NC(=O)CC(C)(C)C)n(C)c2cc(Nc3ccc(C(F)(F)F)cc3)ccc12 [Compound 5],half-life,"[1]; dose IV:0.5, PO:2 mg/kg",5.9 h
same,bioavailability,"[1]; dose IV:0.5, PO:2 mg/kg",64%
same,clearance,"[1]; dose IV:0.5, PO:2 mg/kg",9.1 mL/min/kg
same,Vd,"[1]; dose IV:0.5, PO:2 mg/kg",3.97 L/kg
same,Seizure incidence (%),[2],16.7%
same,EC50,[3],520 nM
